The values below come from patent publication US10774092B2 (SALK INSTITUTE FOR BIOLOGICAL STUDIES, priority 2014, dated 2020).

A value given as a limit tells only on which side of the number the result lay.

One experiment has as its system A549 lung cancer cells. Description: Cyto-ID autophagy dye detection of autophagic vacuoles. In kind it is cell-based. The settings on record: 5-μM 6965 with AZD8055. Here is the method:
FIG. 9E is an immunoflourescence imaging of A549 cells treated in the presence or absence of 5 μM compound 14 for 2 hr followed by 4 μM of the mTOR catalytic inhibitor AZD8055 for 24 hr. Autophagic vacuoles were detected using the Cyto-ID autophagy detection kit and are visualized in green, while cell nuclei were counterstained by DAPI and are visualized in blue.
(§1) To test the ability of compound 14 to block autophagy and cell survival, initial studies were performed in A549 lung cancer cells, which are highly sensitive to mTOR inhibition. […] Next, we genetically assessed the requirement for ULK1 versus other kinases inhibited by compound 14 to induce autophagy after pharmacological mTOR inhibition. A robust high-throughput microscopy method for quantifying GFP-LC3 puncta was established using a PC3 prostate-cancer cell line stably expressing a GFP-LC3 construct. Using this assay, we performed a focused RNAi analysis of the top 20 kinases identified in the DiscovRx screen as best binding to compound 14. […] Strikingly, of the 18 kinases tested, only one kinase siRNA, ULK1, nearly fully abolished the LC3 puncta induced by the mTOR inhibitors (FIG. 9D).
`CNC(=O)c1ccccc1Nc1nc(Nc2cc(OC)c(OC)c(OC)c2)ncc1Br` [compound 14, 2-(5-bromo-2-(3,4,5-trimethoxyphenylamino)pyrimidin-4-ylamino)-N-methylbenzamide]: the “effect on AZD8055-induced autophagy (Cyto-ID dye accumulation)” value is recorded as “strongly suppressed”.

The experiment is the same for the next values; noted with them: AZD8055 alone.
On to `COc1ccc(-c2ccc3c(N4CCOC[C@@H]4C)nc(N4CCOC[C@@H]4C)nc3n2)cc1CO` [AZD8055, (5-(2,4-bis((S)-3-methylmorpholino)pyrido[2,3-d]pyrimidin-7-yl)-2-methoxyphenyl)methanol, reference compound], for which the “autophagy induction (Cyto-ID dye accumulation)” value was “induced robust autophagy”.

In another experiment the target is ULK1 (Homo sapiens, UniProt O75385). Description: ULK1 inhibition assay (Table 1). In kind it is biochemical. The settings on record: * = tested as a mixture of regioisomers.
ULK1, sequence (O75385 whole entry, looked up): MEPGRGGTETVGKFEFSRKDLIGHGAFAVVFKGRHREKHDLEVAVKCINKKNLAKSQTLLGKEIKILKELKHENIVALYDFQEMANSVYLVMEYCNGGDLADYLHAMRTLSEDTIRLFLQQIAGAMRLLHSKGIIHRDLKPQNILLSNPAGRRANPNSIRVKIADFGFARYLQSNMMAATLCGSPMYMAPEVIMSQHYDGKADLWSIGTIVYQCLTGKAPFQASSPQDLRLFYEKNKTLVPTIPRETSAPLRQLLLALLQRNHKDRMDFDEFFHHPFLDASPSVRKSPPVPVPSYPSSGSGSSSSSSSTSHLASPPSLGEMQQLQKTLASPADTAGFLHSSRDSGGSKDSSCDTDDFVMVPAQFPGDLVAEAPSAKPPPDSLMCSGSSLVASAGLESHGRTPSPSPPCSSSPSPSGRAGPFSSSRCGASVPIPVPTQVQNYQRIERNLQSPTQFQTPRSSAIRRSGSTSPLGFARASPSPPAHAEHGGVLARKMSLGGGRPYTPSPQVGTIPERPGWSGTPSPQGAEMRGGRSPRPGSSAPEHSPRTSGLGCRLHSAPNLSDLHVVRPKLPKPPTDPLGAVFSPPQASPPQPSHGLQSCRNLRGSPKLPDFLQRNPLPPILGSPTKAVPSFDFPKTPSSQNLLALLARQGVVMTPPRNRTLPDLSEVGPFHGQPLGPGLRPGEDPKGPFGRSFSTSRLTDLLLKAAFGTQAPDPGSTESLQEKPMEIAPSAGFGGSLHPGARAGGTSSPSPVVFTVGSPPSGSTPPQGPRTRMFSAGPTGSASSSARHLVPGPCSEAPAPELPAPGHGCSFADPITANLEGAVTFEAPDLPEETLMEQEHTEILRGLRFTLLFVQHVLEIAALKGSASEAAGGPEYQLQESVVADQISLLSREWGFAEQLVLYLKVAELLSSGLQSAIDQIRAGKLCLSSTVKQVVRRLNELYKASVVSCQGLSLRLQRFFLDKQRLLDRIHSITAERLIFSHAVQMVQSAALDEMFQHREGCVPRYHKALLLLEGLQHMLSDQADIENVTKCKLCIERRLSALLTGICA
As for `O=c1[nH]c2ccc(Nc3ncc(Br)c(NC4CC4)n3)cc2[nH]1` [Example 236, 5-((5-bromo-4-(cyclopropylamino)pyrimidin-2-yl)amino)-1,3-dihydro-2H-benzo[d]imidazol-2-one], the 50% inhibitory concentration (IC50) is under 200 nM. Still for that read-out and setting: under `CNS(=O)(=O)c1ccccc1Nc1nc(Nc2cc(OC)c(OC)c(OC)c2)ncc1Br` [Example 237, 2-((5-bromo-2-((3,4,5-trimethoxyphenyl)amino)pyrimidin-4-yl)amino)-N-methylbenzenesulfonamide] stands 200 to 2000 nM. `CNC(=O)c1ccccc1Oc1ccnc(Nc2cc(OC)c(OC)c(OC)c2)n1` [Example 239, N-methyl-2-((2-((3,4,5-trimethoxyphenyl)amino)pyrimidin-4-yl)oxy)benzamide]: the IC50 was over 2000 nM. Same read-out and setting: the figure for `Oc1ccc(CCNc2ncc(C(F)(F)F)c(NC3CC3)n2)cc1` [Example 246, 4-(2-((4-(cyclopropylamino)-5-(trifluoromethyl)pyrimidin-2-yl)amino)ethyl)phenol] is 200 to 2000 nM; for `C[C@@H]1COCCN1c1nc(Nc2ccc3c(c2)CCC(=O)N3)ncc1C(F)(F)F` [Example 247, (R)-6-((4-(3-methylmorpholino)-5-(trifluoromethyl)pyrimidin-2-yl)amino)-3,4-dihydroquinolin-2(1H)-one] it is under 200 nM. With `FC1(F)Oc2ccc(Nc3ncc(C(F)(F)F)c(NC4CC4)n3)cc2O1` [Example 258, N4-cyclopropyl-N2-(2,2-difluorobenzo[d][1,3]dioxol-5-yl)-5-(trifluoromethyl)pyrimidine-2,4-diamine], the IC50 is over 2000 nM. In the case of `CCC(=O)c1ccccc1Oc1nc(Nc2cc(OC)c(OC)c(OC)c2)ncc1Br` [Example 260, 1-(2-((5-bromo-2-((3,4,5-trimethoxyphenyl)amino)pyrimidin-4-yl)oxy)phenyl)propan-1-one], the IC50 was under 200 nM. Same read-out and setting: the figure for `FC(F)(F)c1cnc(NCc2cccc3ccccc23)nc1NC1CC1` [Example 262, N4-cyclopropyl-N2-(naphthalen-1-ylmethyl)-5-(trifluoromethyl)pyrimidine-2,4-diamine] is over 2000 nM; for `FC(F)(F)c1cnc(Nc2ccc3ncccc3c2)nc1NC1CC1` [Example 264, N4-cyclopropyl-N2-(quinolin-6-yl)-5-(trifluoromethyl) pyrimidine-2,4-diamine] it is under 200 nM. On to `O=C1CCc2cc(Nc3ncc(C(F)(F)F)c(Nc4cc(C5CCC5)[nH]n4)n3)ccc2N1` [Example 271, 6-((4-((5-cyclobutyl-1H-pyrazol-3-yl)amino)-5-(trifluoromethyl)pyrimidin-2-yl)amino)-3,4-dihydroquinolin-2(1H)-one], for which the IC50 is under 200 nM. Still for that read-out and setting: under `FC(F)(F)c1cnc(Nc2cnc3ccccc3c2)nc1NC1CC1` [Example 275, N4-cyclopropyl-N2-(quinolin-3-yl)-5-(trifluoromethyl) pyrimidine-2,4-diamine] stands under 200 nM; under `O=C1CCc2cc(Nc3ncc(C(=O)O)c(NC4CC4)n3)ccc2N1` [Example 286, 4-(cyclopropylamino)-2-((2-oxo-1,2,3,4-tetrahydroquinolin-6-yl)amino)pyrimidine-5-carboxylic Acid], over 2000 nM; under `COC(=O)Nc1ccccc1Oc1nc(Nc2cc(OC)c(OC)c(OC)c2)ncc1Br` [Example 296, Methyl (2-((5-bromo-2-((3,4,5-trimethoxyphenyl)amino)pyrimidin-4-yl)oxy)phenyl)carbamate], under 200 nM.

In the case of `FC(F)(F)c1cnc(Nc2ccc3nc[nH]c3c2)nc1Nc1cc(C2CCC2)[nH]n1` [Example 297, N2-(1H-benzo[d]imidazol-6-yl)-N4-(5-cyclobutyl-1H-pyrazol-3-yl)-5-(trifluoromethyl)pyrimidine-2,4-diamine], the IC50 is under 200 nM.

With `COc1cc(Nc2ncc(Br)c(Oc3ccccc3C(F)(F)F)n2)cc(OC)c1OC` [Example 299, 5-bromo-4-(2-(trifluoromethyl)phenoxy)-N-(3,4,5-trimethoxyphenyl)pyrimidin-2-amine], the IC50 was under 200 nM. For `O=C1CCCc2cc(Nc3ncc(C(F)(F)F)c(NC4CC4)n3)ccc21` [Example 301, 6-((4-(cyclopropylamino)-5-(trifluoromethyl)pyrimidin-2-yl)amino)-3,4-dihydronaphthalen-1(2H)-one], the 50% inhibitory concentration (IC50) is under 200 nM. Still for that read-out and setting: under `COc1cc(Nc2ncc(Br)c(Nc3ccccc3CO)n2)cc(OC)c1OC` [Example 303, (2-((5-bromo-2-((3,4,5-trimethoxyphenyl)amino)pyrimidin-4-yl)amino)phenyl)methanol] stands under 200 nM; under `Nc1ccc(Nc2ncc(C(F)(F)F)c(NC3CC3)n2)cc1` [Example 304a, N2-(4-aminophenyl)-N4-cyclopropyl-5-(trifluoromethyl)pyrimidine-2,4-diamine], under 200 nM; under `CC(C)(C)OC(=O)NCCCNc1nc(Nc2ccc3c(c2)CCC(=O)N3)ncc1C(F)(F)F` [Example 310, Tert-butyl (3-((2-((2-oxo-1,2,3,4-tetrahydroquinolin-6-yl)amino)-5-(trifluoromethyl)pyrimidin-4-yl)amino)propyl)carbamate], under 200 nM.

For `O=C(C1CC1)N(C(=O)C1CC1)c1ccc(Nc2ncc(C(F)(F)F)c(NC3CC3)n2)cc1` [Example 311, N-(cyclopropanecarbonyl)-N-(4-((4-(cyclopropylamino)-5-(trifluoromethyl)pyrimidin-2-yl)amino)phenyl)cyclopropanecarboxamide], the IC50 was under 200 nM. Still for that read-out and setting: under `O=C(Nc1ccc(Nc2ncc(C(F)(F)F)c(NC3CC3)n2)cc1)C1CC1` [Example 312, N-(4-((4-(cyclopropylamino)-5-(trifluoromethyl)pyrimidin-2-yl)amino)phenyl)cyclopropanecarboxamide] stands under 200 nM.

In a further experiment the test system is PC3 prostate-cancer cell line stably expressing GFP-LC3. Description: GFP-LC3 puncta high-throughput microscopy. Particulars: control siRNA cells, 1 μM mTOR catalytic inhibitor for 4 hr. The format is cell-based, human. On the procedure: At 48 hr after RNAi transfection, the cells were treated with 1 μM of the catalytic mTOR inhibitors AZD8055 or INK128 for 4 hr and assessed for the presence of GFP-LC3 puncta. The average number of GFPLC3 puncta and SD for each siRNA and drug treatment are shown. SRC, c-Src; c-Src kinase, CSK.
as §1
For `COc1ccc(-c2ccc3c(N4CCOC[C@@H]4C)nc(N4CCOC[C@@H]4C)nc3n2)cc1CO` [AZD8055, (5-(2,4-bis((S)-3-methylmorpholino)pyrido[2,3-d]pyrimidin-7-yl)-2-methoxyphenyl)methanol, reference compound], the “induction in GFP-LC3 puncta formation” value stood at 2 fold. Still for that read-out and setting: the figure for `CC(C)n1nc(-c2ccc3oc(N)nc3c2)c2c(N)ncnc21` [INK128, 3-(2-amino-5-benzoxazolyl)-1-(1-methylethyl)-1H-pyrazolo[3,4-d]pyrimidin-4-amine] is 2 fold.

The next experiment deals with endogenous ULK1 activity. The experiment in a line: mobility shift of endogenous Beclin1 and Atg13 (endogenous ULK1 activity) in MEFs. The format is cell-based, mouse. Particulars: WT MEFs, 10 μM co-treatment, 1 hr. On the procedure: FIG. 7D: WT or Ulk1/Ulk2 double knockout mouse embryonic fibroblasts (MEFs) were treated with fresh media (Dulbecco's modified Eagle medium [DMEM] containing 10% FBS) containing 1-μM INK128, 1-μM AZD8055, or DMSO or with starvation media (EBSS) in the presence or absence of 10 μM compound 14. Cellular lysates were isolated after 1 hr of treatment and immunoblotted with the indicated antibodies. Asterisk denotes non-specific band.
We next examined whether compound 14 inhibits endogenous ULK1 activity. To activate endogenous ULK1, we treated MEFs with either amino acid starvation media (Earle's balanced salt solution [EBSS]) or the mTOR ATP-competitive inhibitors INK128 or AZD8055. In WT MEFs, we observed a mobility shift in endogenous Beclin1 and Atg13 in response to EBSS starvation media or the mTOR catalytic inhibitors, which was abolished in Ulk1/2-deficient MEFs (FIG. 7D). […] In certain embodiments, the mobility shifts observed in endogenous Beclin1 and Atg13 induced by mTOR inhibitors and starvation media reflect phosphorylation of endogenous Beclin1/Atg13 by endogenous ULK1/2 as they only occur in WT but not Ulk1/2-deficient MEFs.
Take `CNC(=O)c1ccccc1Nc1nc(Nc2cc(OC)c(OC)c(OC)c2)ncc1Br` [compound 14, 2-(5-bromo-2-(3,4,5-trimethoxyphenylamino)pyrimidin-4-ylamino)-N-methylbenzamide]: the “EBSS and mTOR-inhibitor induced mobility shift in Beclin1 and Atg13” value is on record as “inhibited”.

As a reminder, the IC50 is the concentration that inhibits the measured activity by half.
